Results: patent US20230085307A1, “PYRIDAZINONE COMPOUND AND HERBICIDE” (NISSAN CHEMICAL CORPORATION, priority 2019, published 2023)

What was measured:
Chinese sprangletop = assay: Test Example 3: herbicidal effect by foliage application, Wagner pot (Table 18, symbol D); format: in vivo, chinese sprangletop (Leptochloa chinensis)
Protocol: (§1) [Test Example 3] Herbicidal Effect Test by Foliage Application After alluvial soil was placed into 1/10000 are of Wagner pot, water was poured and mixed to form a submerged condition having a water depth of 0.1 cm to 0.5 cm. Seeds of barnyard grass, Chinese sprangletop, rice flat sedge, and rice were sowed and the pot was placed in a greenhouse at 25° C. to 30° C. for growth of the plants. After 14-day growth of the plants, the emulsion agent of the compound of the present invention prepared according to Formulation Example 2 was diluted with water so as to achieve a predetermined herbicide amount, and the diluted emulsion agent was uniformly applied to a foliage part with a small-sized spray. Three weeks after the herbicide application, the effect of the herbicide on each plant was evaluated according to the criteria of Test Example 1.

rice flat sedge = assay: Test Example 3: herbicidal effect by foliage application, Wagner pot (Table 18, symbol E); format: in vivo, rice flat sedge (Cyperus iria)
Protocol: as §1

barnyard grass [1] = assay: Test Example 3: herbicidal effect by foliage application, Wagner pot (Table 18, symbol H); format: in vivo, barnyard grass (Echinochloa crus-galli)
Protocol: as §1

green foxtail = assay: Test Example 5: herbicidal effect by foliage application, plastic box (Table 20, symbol G); format: in vivo, green foxtail (Setaria viridis); details: foliage application, 320 g/ha, three weeks after application
Description: (§2) [Test Example 5] Herbicidal Effect Test by Foliage Application
(§3) Sterilized diluvial soil was placed in a plastic box having a length of 21 cm, a width of 13 cm, and a depth of 7 cm. The seeds of each of southern crabgrass, green foxtail, barnyard grass, wild oat, blackgrass, Italian ryegrass, windgrass, velvetleaf, redroot pigweed, lambsquarters, chickweed, false cleavers, persian speedwell, corn, soybean, rice, wheat, beet, and rapeseed were sowed in a spot-like manner and covered with the soil having a thickness of about 1.5 cm. Thereafter, the plants were grown in a greenhouse at 25° C. to 30° C. After 14-day growth of the plants, the emulsion agent of the compound of the present invention prepared according to Formulation Example 2 was diluted with water so as to achieve a predetermined herbicide amount, and the diluted emulsion agent was uniformly applied to a foliage part with a small-sized spray. Three weeks after the herbicide application, the effect of the herbicide on each plant was evaluated according to the criteria of Test Example 1.

wild oat = assay: Test Example 5: herbicidal effect by foliage application, plastic box (Table 20, symbol I); format: in vivo, wild oat (Avena fatua); details: foliage application, 320 g/ha, three weeks after application
Description: as §2, §3

barnyard grass [2] = assay: Test Example 5: herbicidal effect by foliage application, plastic box (Table 20, symbol H); format: in vivo, barnyard grass (Echinochloa crus-galli); details: foliage application, 320 g/ha, three weeks after application
Description: as §2, §3

velvetleaf = assay: Test Example 5: herbicidal effect by foliage application, plastic box (Table 20, symbol M); format: in vivo, velvetleaf (Abutilon theophrasti); details: foliage application, 320 g/ha, three weeks after application
Description: as §2, §3

windgrass = assay: Test Example 5: herbicidal effect by foliage application, plastic box (Table 20, symbol L); format: in vivo, windgrass (Apera spica-venti); details: foliage application, 320 g/ha, three weeks after application
Description: as §2, §3

blackgrass = assay: Test Example 5: herbicidal effect by foliage application, plastic box (Table 20, symbol J); format: in vivo, blackgrass (Alopecurus myosuroides); details: foliage application, 320 g/ha, three weeks after application
Description: as §2, §3

lambsquarters = assay: Test Example 5: herbicidal effect by foliage application, plastic box (Table 20, symbol O); format: in vivo, lambsquarters (Chenopodium album); details: foliage application, 320 g/ha, three weeks after application
Description: as §2, §3

southern crabgrass = assay: Test Example 5: herbicidal effect by foliage application, plastic box (Table 20, symbol F); format: in vivo, southern crabgrass (Digitaria ciliaris); details: foliage application, 320 g/ha, three weeks after application
Description: as §2, §3

Italian ryegrass = assay: Test Example 5: herbicidal effect by foliage application, plastic box (Table 20, symbol K); format: in vivo, Italian ryegrass (Lolium multiflorum); details: foliage application, 320 g/ha, three weeks after application
Description: as §2, §3

persian speedwell = assay: Test Example 5: herbicidal effect by foliage application, plastic box (Table 20, symbol R); format: in vivo, Persian speedwell (Veronica persica); details: foliage application, 320 g/ha, three weeks after application
Description: as §2, §3

[3] = amount of applied herbicide 320 g/ha
[4] = amount of applied herbicide 101 g/ha
[5] = amount of applied herbicide 125 g/ha

CCCC(=O)Oc1c(C)nn(C)c(=O)c1-c1c(-c2ccc(OC)nc2OC)sc2ccccc12 [1-080]
herbicidal effect on D (Chinese sprangletop), rating 0-5 (Chinese sprangletop; 320 g/ha): 0 (Herbicidal rate of 5% or less (almost no effect)) | herbicidal effect on E (rice flat sedge), rating 0-5 (rice flat sedge; 320 g/ha): 4 (Herbicidal rate of 70% or more and less than 90%) | herbicidal effect on H (barnyard grass), rating 0-5 (barnyard grass [1]; 320 g/ha): 0 (Herbicidal rate of 5% or less (almost no effect))

COc1nn(C)c(=O)c(-c2c(-c3ccc(Oc4ccccc4)cc3)sc3ccccc23)c1O [1-164]
herbicidal effect on D (Chinese sprangletop), rating 0-5 (Chinese sprangletop; 80 g/ha): 4 (Herbicidal rate of 70% or more and less than 90%) | herbicidal effect on E (rice flat sedge), rating 0-5 (rice flat sedge; 80 g/ha): 4 (Herbicidal rate of 70% or more and less than 90%) | herbicidal effect on H (barnyard grass), rating 0-5 (barnyard grass [1]; 80 g/ha): 4 (Herbicidal rate of 70% or more and less than 90%)

CCCC(=O)Oc1c(OC)nn(C)c(=O)c1-c1c(-c2ccoc2)sc2ccccc12 [1-191]
herbicidal effect on D (Chinese sprangletop), rating 0-5 (Chinese sprangletop; 80 g/ha): 5 (Herbicidal rate of 90% or more (almost completely withered)) | herbicidal effect on E (rice flat sedge), rating 0-5 (rice flat sedge; 80 g/ha): 4 (Herbicidal rate of 70% or more and less than 90%) | herbicidal effect on H (barnyard grass), rating 0-5 (barnyard grass [1]; 80 g/ha): 2 (Herbicidal rate of 20% or more and less than 40%)

Cc1ccc2sc(-c3ccc4ccccc4c3)c(-c3c(O)c(C)nn(C)c3=O)c2c1 [2-154]
herbicidal effect on D: Chinese sprangletop (Chinese sprangletop; [3]): 0 (Herbicidal rate of 5% or less (almost no effect)) | herbicidal effect on E: rice flat sedge (rice flat sedge; [3]): 3 (Herbicidal rate of 40% or more and less than 70%) | herbicidal effect on H: barnyard grass (barnyard grass [1]; [3]): 3 (Herbicidal rate of 40% or more and less than 70%)

CCCC(=O)Oc1c(C)nn(C)c(=O)c1-c1c(-c2cc(C(F)(F)F)cc(C(F)(F)F)c2)sc2ccc(F)cc12 [2-359]
herbicidal effect on D: Chinese sprangletop (Chinese sprangletop; [3]): 5 (Herbicidal rate of 90% or more (almost completely withered)) | herbicidal effect on E: rice flat sedge (rice flat sedge; [3]): 3 (Herbicidal rate of 40% or more and less than 70%) | herbicidal effect on H: barnyard grass (barnyard grass [1]; [3]): 3 (Herbicidal rate of 40% or more and less than 70%)

COc1cc(F)ccc1-c1sc2ccc(S(C)(=O)=O)cc2c1-c1c(O)c(C)nn(C)c1=O [2-377]
herbicidal effect on D: Chinese sprangletop (Chinese sprangletop; [4]): 3 (Herbicidal rate of 40% or more and less than 70%) | herbicidal effect on E: rice flat sedge (rice flat sedge; [4]): 3 (Herbicidal rate of 40% or more and less than 70%) | herbicidal effect on H: barnyard grass (barnyard grass [1]; [4]): 4 (Herbicidal rate of 70% or more and less than 90%)

CCn1nc(C)c(O)c(-c2c(-c3ccc(Cl)cc3)sc3ccc(F)cc23)c1=O [2-400]
herbicidal effect on D: Chinese sprangletop (Chinese sprangletop; [3]): 5 (Herbicidal rate of 90% or more (almost completely withered)) | herbicidal effect on E: rice flat sedge (rice flat sedge; [3]): 5 (Herbicidal rate of 90% or more (almost completely withered))

Cc1n[nH]c(=O)c(-c2c(-c3ccc(F)cc3)sc3ccc(F)cc23)c1O [2-428]
herbicidal effect on D: Chinese sprangletop (Chinese sprangletop; [5]): 0 (Herbicidal rate of 5% or less (almost no effect)) | herbicidal effect on E: rice flat sedge (rice flat sedge; [5]): 0 (Herbicidal rate of 5% or less (almost no effect)) | herbicidal effect on H: barnyard grass (barnyard grass [1]; [5]): 4 (Herbicidal rate of 70% or more and less than 90%)

Cc1nn(Cc2ccccc2)c(=O)c(-c2c(-c3ccc(Cl)cc3)sc3ccc(F)cc23)c1O [2-434]
herbicidal effect on E: rice flat sedge (rice flat sedge; [3]): 2 (Herbicidal rate of 20% or more and less than 40%) | herbicidal effect on H: barnyard grass (barnyard grass [1]; [3]): 2 (Herbicidal rate of 20% or more and less than 40%)

Cc1nn(C)c(=O)c(-c2c(-c3ccc(OC(F)F)cc3)sc3c(C)cccc23)c1O [4-128]
herbicidal effect on Chinese sprangletop (D) (Chinese sprangletop; 320 g/ha): 0 (Herbicidal rate of 5% or less (almost no effect)) | herbicidal effect on rice flat sedge (E) (rice flat sedge; 320 g/ha): 5 (Herbicidal rate of 90% or more (almost completely withered)) | herbicidal effect on barnyard grass (H) (barnyard grass [1]; 320 g/ha): 3 (Herbicidal rate of 40% or more and less than 70%)

Cc1nn(C)c(=O)c(-c2c(-c3ccc(C(=O)O)cc3)sc3cc(F)c(F)cc23)c1O [5-027]
herbicidal effect on Chinese sprangletop (D) (Chinese sprangletop; 320 g/ha): 0 (Herbicidal rate of 5% or less (almost no effect)) | herbicidal effect on rice flat sedge (E) (rice flat sedge; 320 g/ha): 0 (Herbicidal rate of 5% or less (almost no effect)) | herbicidal effect on barnyard grass (H) (barnyard grass [1]; 320 g/ha): 3 (Herbicidal rate of 40% or more and less than 70%)

CCCC(=O)Oc1c(C)nn(C)c(=O)c1-c1c(-c2ccc(OC)c(OC)c2)sc2cc(OC)c(OC)cc12 [5-063]
herbicidal effect on green foxtail (G) (green foxtail): 0 (Herbicidal rate of 5% or less (almost no effect)) | herbicidal effect on wild oat (I) (wild oat): 0 (Herbicidal rate of 5% or less (almost no effect)) | herbicidal effect on Chinese sprangletop (D) (Chinese sprangletop; 320 g/ha): 0 (Herbicidal rate of 5% or less (almost no effect)) | herbicidal effect on rice flat sedge (E) (rice flat sedge; 320 g/ha): 2 (Herbicidal rate of 20% or more and less than 40%) | herbicidal effect on barnyard grass (H) (barnyard grass [2]): 0 (Herbicidal rate of 5% or less (almost no effect)) | herbicidal effect on velvetleaf (M) (velvetleaf): 0 (Herbicidal rate of 5% or less (almost no effect)) | herbicidal effect on windgrass (L) (windgrass): 0 (Herbicidal rate of 5% or less (almost no effect)) | herbicidal effect on blackgrass (J) (blackgrass): 0 (Herbicidal rate of 5% or less (almost no effect)) | herbicidal effect on barnyard grass (H) (barnyard grass [1]; 320 g/ha): 3 (Herbicidal rate of 40% or more and less than 70%) | herbicidal effect on lambsquarters (O) (lambsquarters): 0 (Herbicidal rate of 5% or less (almost no effect)) | herbicidal effect on southern crabgrass (F) (southern crabgrass): 0 (Herbicidal rate of 5% or less (almost no effect)) | herbicidal effect on Italian ryegrass (K) (Italian ryegrass): 1 (Herbicidal rate of 5% or more and less than 20%) | herbicidal effect on persian speedwell (R) (persian speedwell): 0 (Herbicidal rate of 5% or less (almost no effect))

CCOc1cc(F)ccc1-c1cc2c(-c3c(O)c(C)nn(C)c3=O)c(-c3ccc(F)cc3OCC)sc2cc1OC [5-081]
herbicidal effect on Chinese sprangletop (D) (Chinese sprangletop; 320 g/ha): 2 (Herbicidal rate of 20% or more and less than 40%) | herbicidal effect on rice flat sedge (E) (rice flat sedge; 320 g/ha): 0 (Herbicidal rate of 5% or less (almost no effect)) | herbicidal effect on barnyard grass (H) (barnyard grass [1]; 320 g/ha): 2 (Herbicidal rate of 20% or more and less than 40%)

Cc1cc2sc(-c3ccc(C(F)(F)F)cc3)c(-c3c(O)c(C)nn(C)c3=O)c2cc1C [5-096]
herbicidal effect on Chinese sprangletop (D) (Chinese sprangletop; 320 g/ha): 2 (Herbicidal rate of 20% or more and less than 40%) | herbicidal effect on rice flat sedge (E) (rice flat sedge; 320 g/ha): 2 (Herbicidal rate of 20% or more and less than 40%) | herbicidal effect on barnyard grass (H) (barnyard grass [1]; 320 g/ha): 3 (Herbicidal rate of 40% or more and less than 70%)

Cc1cc2sc(-c3ccc(C#N)cc3)c(-c3c(O)c(C)nn(C)c3=O)c2cc1C [5-100]
herbicidal effect on green foxtail (G) (green foxtail): 0 (Herbicidal rate of 5% or less (almost no effect)) | herbicidal effect on wild oat (I) (wild oat): 0 (Herbicidal rate of 5% or less (almost no effect)) | herbicidal effect on barnyard grass (H) (barnyard grass [2]): 0 (Herbicidal rate of 5% or less (almost no effect)) | herbicidal effect on velvetleaf (M) (velvetleaf): 0 (Herbicidal rate of 5% or less (almost no effect)) | herbicidal effect on windgrass (L) (windgrass): 0 (Herbicidal rate of 5% or less (almost no effect)) | herbicidal effect on blackgrass (J) (blackgrass): 0 (Herbicidal rate of 5% or less (almost no effect)) | herbicidal effect on lambsquarters (O) (lambsquarters): 0 (Herbicidal rate of 5% or less (almost no effect)) | herbicidal effect on southern crabgrass (F) (southern crabgrass): 0 (Herbicidal rate of 5% or less (almost no effect)) | herbicidal effect on Italian ryegrass (K) (Italian ryegrass): 0 (Herbicidal rate of 5% or less (almost no effect)) | herbicidal effect on persian speedwell (R) (persian speedwell): 2 (Herbicidal rate of 20% or more and less than 40%)

Cc1ccc(-c2oc3ccc(F)cc3c2-c2c(O)c(C)nn(C)c2=O)cc1 [9-017]
Herbicidal effect on D (Chinese sprangletop), foliage application (Chinese sprangletop; [3]): 3 (Herbicidal rate of 40% or more and less than 70%) | Herbicidal effect on E (rice flat sedge), foliage application (rice flat sedge; [3]): 5 (Herbicidal rate of 90% or more (almost completely withered)) | Herbicidal effect on H (barnyard grass), foliage application (barnyard grass [1]; [3]): 5 (Herbicidal rate of 90% or more (almost completely withered))

Cc1nn(C)c(=O)c(-c2c(-c3ccc(C(F)(F)F)cc3)oc3ccc(F)cc23)c1O [9-029]
Herbicidal effect on D (Chinese sprangletop), foliage application (Chinese sprangletop; [3]): 3 (Herbicidal rate of 40% or more and less than 70%) | Herbicidal effect on E (rice flat sedge), foliage application (rice flat sedge; [3]): 5 (Herbicidal rate of 90% or more (almost completely withered)) | Herbicidal effect on H (barnyard grass), foliage application (barnyard grass [1]; [3]): 4 (Herbicidal rate of 70% or more and less than 90%)
